# Source: patent publication US20260285875A1, “INHIBITORS OF PARG” (858 Therapeutics, Inc., priority 2023, published 2026)
# Molecular target: T1, cellular PARG (Homo sapiens, UniProt Q86W56)
# T1 construct: endogenous in cells; host or cells: HeLa
# Assay: Nuclear PAR accumulation assay (immunofluorescence high-content imaging, MMS-treated HeLa cells)
# Assay type: cell-based
# Conditions: 1 hour compound then MMS 50 μg/mL for an additional hour
# How it was run: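 HeLa cells pretreated with compound for 1 h at 37° C, then given 50 μg/mL MMS for another hour. After methanol fixation, PAR was immunostained with DAPI nuclear counterstain; per-nucleus intensity and percent PAR-positive cells were imaged at 20× (≥1,000 cells/well). IC50 from four-parameter logistic fit.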
# T1 sequence (Q86W56 whole entry): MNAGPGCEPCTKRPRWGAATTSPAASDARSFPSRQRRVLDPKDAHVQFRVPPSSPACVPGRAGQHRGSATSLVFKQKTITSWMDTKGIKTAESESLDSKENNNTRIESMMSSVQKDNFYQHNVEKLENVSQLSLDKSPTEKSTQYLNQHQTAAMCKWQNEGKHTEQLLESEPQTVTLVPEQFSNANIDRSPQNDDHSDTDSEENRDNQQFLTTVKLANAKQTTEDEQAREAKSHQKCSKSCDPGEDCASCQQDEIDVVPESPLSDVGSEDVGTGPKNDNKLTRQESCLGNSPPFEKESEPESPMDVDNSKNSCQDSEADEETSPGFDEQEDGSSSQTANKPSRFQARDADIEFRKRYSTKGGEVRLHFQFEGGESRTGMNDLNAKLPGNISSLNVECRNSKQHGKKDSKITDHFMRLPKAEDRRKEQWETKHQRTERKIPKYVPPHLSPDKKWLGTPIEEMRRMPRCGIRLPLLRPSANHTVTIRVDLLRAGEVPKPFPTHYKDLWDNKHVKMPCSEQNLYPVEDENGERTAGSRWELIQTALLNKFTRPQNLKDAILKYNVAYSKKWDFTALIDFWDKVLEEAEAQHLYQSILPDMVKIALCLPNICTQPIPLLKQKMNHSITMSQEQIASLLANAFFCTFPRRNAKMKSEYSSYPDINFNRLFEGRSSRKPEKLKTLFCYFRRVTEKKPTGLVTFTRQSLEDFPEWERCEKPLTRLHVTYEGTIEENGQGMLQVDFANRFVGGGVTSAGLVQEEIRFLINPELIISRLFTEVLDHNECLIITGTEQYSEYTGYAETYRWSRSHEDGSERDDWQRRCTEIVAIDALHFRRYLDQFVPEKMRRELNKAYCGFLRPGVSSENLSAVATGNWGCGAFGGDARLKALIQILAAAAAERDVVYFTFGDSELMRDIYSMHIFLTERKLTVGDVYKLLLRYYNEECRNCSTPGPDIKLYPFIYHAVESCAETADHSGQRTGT
row,SMILES,IC50 [nM]
1,"Cc1cc(C#C[C@@H]2CN=C3N(C)C(=O)c4cc(S(=O)(=O)NC5(C)CC5)ccc4N32)ccn1 [Example 216, (R)-4-methyl-N-(1-methylcyclopropyl)-1-((2-methylpyridin-4-yl)ethynyl)-5-oxo-1,2,4,5-tetrahydroimidazo[1,2-a]quinazoline-7-sulfonamide]",< 100
2,"Cn1cc(CN2C(=O)c3cc(S(=O)(=O)NC4(C)CC4)ccc3N3C[C@H](c4ccccc4)N=C23)cn1 [Example 155, (S)-4-((1-methyl-1H-pyrazol-4-yl)methyl)-N-(1-methylcyclopropyl)-5-oxo-2-phenyl-1,2,4,5-tetrahydroimidazo[1,2-a]quinazoline-7-sulfonamide]",< 100
3,"Cn1cc(CN2C(=O)c3cc(S(=O)(=O)NC4(C)CC4)cc(C4=CCCC4)c3N3CC(C)(C)N=C23)cn1 [Example 11, 9-(cyclopent-1-en-1-yl)-2,2-dimethyl-4-((1-methyl-1H-pyrazol-4-yl)methyl)-N-(1-methylcyclopropyl)-5-oxo-1,2,4,5-tetrahydroimidazo[1,2-a]quinazoline-7-sulfonamide]",< 100
4,"CN1C(=O)c2cc(S(=O)(=O)NC3(C)CC3)ccc2N2C1=NCC2C#Cc1c[nH]c2cnccc12 (centres unmarked) [Example 168, 1-((1H-pyrrolo[2,3-c]pyridin-3-yl)ethynyl)-4-methyl-N-(1-methylcyclopropyl)-5-oxo-1,2,4,5-tetrahydroimidazo[1,2-a]quinazoline-7-sulfonamide]",100 to 1000
5,"C=Cc1cc(CN2C(=O)c3cc(S(=O)(=O)NC4(C)CC4)ccc3N3C2=NC[C@H]3C)ccn1 [Example 255, (R)-1-methyl-N-(1-methylcyclopropyl)-5-oxo-4-((2-vinylpyridin-4-yl)methyl)-1,2,4,5-tetrahydroimidazo[1,2-a]quinazoline-7-sulfonamide]",< 100
6,"CC#C[C@@H]1CN=C2N(C)C(=O)c3cc(S(=O)(=O)NC4(C)CC4)cc(Br)c3N21 [Example 42, (R)-9-bromo-4-methyl-N-(1-methylcyclopropyl)-5-oxo-1-(prop-1-yn-1-yl)-1,2,4,5-tetrahydroimidazo[1,2-a]quinazoline-7-sulfonamide]",< 100
7,"C[C@@H]1CN=C2N(Cc3cnn(C)c3)C(=O)c3cc(S(=O)(=O)NC4(C)CC4)cc(-c4ccc(F)cn4)c3N21 [Example 6, (R)-9-(5-fluoropyridin-2-yl)-1-methyl-4-((1-methyl-1H-pyrazol-4-yl)methyl)-N-(1-methylcyclopropyl)-5-oxo-1,2,4,5-tetrahydroimidazo[1,2-a]quinazoline-7-sulfonamide]",< 100
8,"CCc1noc(C)c1CN1C(=O)c2cc(S(=O)(=O)NC3(C)CC3)ccc2N2C1=NC[C@H]2C [Example 5, (R)-4-((3-ethyl-5-methylisoxazol-4-yl)methyl)-1-methyl-N-(1-methylcyclopropyl)-5-oxo-1,2,4,5-tetrahydroimidazo[1,2-a]quinazoline-7-sulfonamide]",< 100
9,"Cc1noc(C2CC2)c1CN1C(=O)c2cc(S(=O)(=O)NC3(C)CC3)ccc2N2C1=NC[C@H]2C [Example 8, (R)-4-((5-cyclopropyl-3-methylisoxazol-4-yl)methyl)-1-methyl-N-(1-methylcyclopropyl)-5-oxo-1,2,4,5-tetrahydroimidazo[1,2-a]quinazoline-7-sulfonamide]",< 100
10,"Cc1cc(F)ccc1-c1cc(S(=O)(=O)NC2(C)CC2)cc2c1N1CC(C)(C)N=C1N(C)C2=O [Example 61, 9-(4-fluoro-2-methylphenyl)-2,2,4-trimethyl-N-(1-methylcyclopropyl)-5-oxo-1,2,4,5-tetrahydroimidazo[1,2-a]quinazoline-7-sulfonamide]",100 to 1000
11,"[2H]C([2H])(c1cnn(C)c1)N1C(=O)c2cc(S(=O)(=O)NC3(C)CC3)c(SC)cc2N2C1=N[C@H]1CCC[C@H]12 [Example 240, (7aS,10aR)-6-((1-methyl-1H-pyrazol-4-yl)methyl-d2)-N-(1-methylcyclopropyl)-2-(methylthio)-5-oxo-6,7a,8,9,10,10a-hexahydro-5H-cyclopenta[4,5]imidazo[1,2-a]quinazoline-3-sulfonamide]",100 to 1000
12,"C[C@@H]1CN=C2N(CC#Cc3ccc(F)nc3)C(=O)c3cc(S(=O)(=O)NC4(C)CC4)ccc3N21 [Example 278, (R)-4-(3-(6-fluoropyridin-3-yl)prop-2-yn-1-yl)-1-methyl-N-(1-methylcyclopropyl)-5-oxo-1,2,4,5-tetrahydroimidazo[1,2-a]quinazoline-7-sulfonamide]",100 to 1000
13,"Cn1cc(CN2C(=O)c3cc(S(=O)(=O)NC4(C)CC4)ccc3N3C[C@H](COCc4ccccc4)N=C23)cn1 [Example 154, (R)-2-((benzyloxy)methyl)-4-((1-methyl-1H-pyrazol-4-yl)methyl)-N-(1-methylcyclopropyl)-5-oxo-1,2,4,5-tetrahydroimidazo[1,2-a]quinazoline-7-sulfonamide]",< 100

# Continued, values first:
row,IC50 [nM],SMILES
1,< 100,"Cn1cc(CN2C(=O)c3cc(S(=O)(=O)NC4(C)CC4)ccc3N3C2=NC[C@H]3C#Cc2ccn(C)n2)cn1 [Example 65, (R)-1-((1-methyl-1H-pyrazol-3-yl)ethynyl)-4-((1-methyl-1H-pyrazol-4-yl)methyl)-N-(1-methylcyclopropyl)-5-oxo-1,2,4,5-tetrahydroimidazo[1,2-a]quinazoline-7-sulfonamide]"
2,< 100,"[2H]C([2H])(c1cnn(C)c1)N1C(=O)c2cc(S(=O)(=O)NC3(C)CC3)ccc2N2C1=NC[C@H]2C#Cc1cncnc1N [Example 268, (R)-1-((4-aminopyrimidin-5-yl)ethynyl)-4-((1-methyl-1H-pyrazol-4-yl)methyl-d2)-N-(1-methylcyclopropyl)-5-oxo-1,2,4,5-tetrahydroimidazo[1,2-a]quinazoline-7-sulfonamide]"
3,< 100,"[2H]C([2H])(c1cnn(C)c1)N1C(=O)c2cc(S(=O)(=O)NC3(C)CC3)ccc2N2C1=NC[C@H]2C#CC1=CCOCC1 [Example 282, (R)-1-((3,6-dihydro-2H-pyran-4-yl)ethynyl)-4-((1-methyl-1H-pyrazol-4-yl)methyl-d2)-N-(1-methylcyclopropyl)-5-oxo-1,2,4,5-tetrahydroimidazo[1,2-a]quinazoline-7-sulfonamide]"
4,100 to 1000,"Cn1cc(CN2C(=O)c3cc(S(=O)(=O)NC4(C)CC4)cc(C4=CCCC4)c3N3CCN=C23)cn1 [Example 26, 9-(cyclopent-1-en-1-yl)-4-((1-methyl-1H-pyrazol-4-yl)methyl)-N-(1-methylcyclopropyl)-5-oxo-1,2,4,5-tetrahydroimidazo[1,2-a]quinazoline-7-sulfonamide]"
5,< 100,"Cn1cc(CN2C(=O)c3cc(S(=O)(=O)NC4(C)CC4)ccc3N3C2=NC[C@H]3C#CCN2CCCC2)cn1 [Example 87, (R)-4-((1-methyl-1H-pyrazol-4-yl)methyl)-N-(1-methylcyclopropyl)-5-oxo-1-(3-(pyrrolidin-1-yl)prop-1-yn-1-yl)-1,2,4,5-tetrahydroimidazo[1,2-a]quinazoline-7-sulfonamide]"
6,< 100,"CN1C(=O)c2cc(S(=O)(=O)NC3(C)CC3)ccc2N2C1=NCC2C#Cc1cnsc1 (centres unmarked) [Example 179, 1-(isothiazol-4-ylethynyl)-4-methyl-N-(1-methylcyclopropyl)-5-oxo-1,2,4,5-tetrahydroimidazo[1,2-a]quinazoline-7-sulfonamide]"
7,< 100,"Cn1cc(C#C[C@@H]2CN=C3N(Cc4cnn(C)c4)C(=O)c4cc(S(=O)(=O)NC5(C)CC5)ccc4N32)cn1 [Example 35, (R)-1-((1-methyl-1H-pyrazol-4-yl)ethynyl)-4-((1-methyl-1H-pyrazol-4-yl)methyl)-N-(1-methylcyclopropyl)-5-oxo-1,2,4,5-tetrahydroimidazo[1,2-a]quinazoline-7-sulfonamide]"
8,< 100,"Cn1cc(CN2C(=O)c3cc(S(=O)(=O)NC4(C)CC4)ccc3N3C2=N[C@H]2CCCC[C@H]23)cn1 [Example 145, (7aS,11aR)-6-((1-methyl-1H-pyrazol-4-yl)methyl)-N-(1-methylcyclopropyl)-5-oxo-5,6,7a,8,9,10,11,11a-octahydrobenzo[4,5]imidazo[1,2-a]quinazoline-3-sulfonamide]"
9,< 100,"[2H]C([2H])(c1cnn(C)c1)N1C(=O)c2cc(S(=O)(=O)NC3(C)CC3)ccc2N2C1=NC[C@H]2C#CC1CC1 [Example 14, (R)-1-(cyclopropylethynyl)-4-((1-methyl-1H-pyrazol-4-yl)methyl-d2)-N-(1-methylcyclopropyl)-5-oxo-1,2,4,5-tetrahydroimidazo[1,2-a]quinazoline-7-sulfonamide]"
10,100 to 1000,"COC(=O)[C@@H]1N=C2N(Cc3cnn(C)c3)C(=O)c3cc(S(=O)(=O)NC4(C)CC4)ccc3N2[C@@H]1C [Example 293, methyl (1R,2R)-1-methyl-4-((1-methyl-1H-pyrazol-4-yl)methyl)-7-(N-(1-methylcyclopropyl)sulfamoyl)-5-oxo-1,2,4,5-tetrahydroimidazo[1,2-a]quinazoline-2-carboxylate]"
11,100 to 1000,"[2H]C([2H])(c1cnn(C)c1)N1C(=O)c2cc(S(=O)(=O)NC3(C)CC3)ccc2N2C1=NC[C@H]2C#CC(C)(C)N [Example 105, (R)-1-(3-amino-3-methylbut-1-yn-1-yl)-4-((1-methyl-1H-pyrazol-4-yl)methyl-d2)-N-(1-methylcyclopropyl)-5-oxo-1,2,4,5-tetrahydroimidazo[1,2-a]quinazoline-7-sulfonamide]"
12,100 to 1000,"[2H]C([2H])(c1cnn(C)c1)N1C(=O)c2cc(S(=O)(=O)NC3(C)CC3)ccc2N2C1=NC[C@H]2COCCN(C)C [Example 114, (S)-1-((2-(dimethylamino)ethoxy)methyl) -4-((1-methyl-1H-pyrazol-4-yl)methyl-d2)-N-(1-methylcyclopropyl)-5-oxo-1,2,4,5-tetrahydroimidazo[1,2-a]quinazoline-7-sulfonamide]"
13,< 100,"[2H]C([2H])(c1cnn(C)c1)N1C(=O)c2cc(S(=O)(=O)NC3(C)CC3)ccc2N2C1=NC[C@H]2C#Cc1ccc(N(C)C)nc1 [Example 280, (R)-1-((6-(dimethylamino)pyridin-3-yl)ethynyl)-4-((1-methyl-1H-pyrazol-4-yl)methyl-d2)-N-(1-methylcyclopropyl)-5-oxo-1,2,4,5-tetrahydroimidazo[1,2-a]quinazoline-7-sulfonamide]"
